Assay results as given in BindingDB's records for patent US12304898 (Primegene (Beijing), 2025).

How the values were obtained:
[1] = molecular target: Vascular endothelial growth factor receptor 2 (Homo sapiens, UniProt P35968); assay: Inhibitory Activities of the Compounds on VEGFR2
Protocol: Detect compounds on VEGFR2 (KDR) by mobility shift assay. The initial test concentration of a compound was 1000 nM, 3 times dilution, 10 concentrations, and detection in duplicate. Nintedanib (Selleckchem, Cat. S1010) was used as the positive control compound. The operation method was briefly described as follows: kinase VEGFR2 (Carna, Cat. 08-191) at the final concentration of 0.5 nM and the test compound were mixed in the Optiplate-384F well plate and incubated for 10 minutes at room temperature. Then, ATP at a final concentration of 95 μM and 3 μM Kinase substrate 22 (Gill Biochemical (glbiochem), Cat. 112393) were added. After mixing, react at room temperature for 30 minutes. Add stop detection solution to terminate the reaction and read the conversion rate with Caliper EZ ReaderlI.

Histone deacetylase 6 = molecular target: T1, Histone deacetylase 6 (Homo sapiens, UniProt Q9UBN7); assay: Inhibitory Activity of the Compounds on HDAC6
T1 sequence (Q9UBN7 whole entry): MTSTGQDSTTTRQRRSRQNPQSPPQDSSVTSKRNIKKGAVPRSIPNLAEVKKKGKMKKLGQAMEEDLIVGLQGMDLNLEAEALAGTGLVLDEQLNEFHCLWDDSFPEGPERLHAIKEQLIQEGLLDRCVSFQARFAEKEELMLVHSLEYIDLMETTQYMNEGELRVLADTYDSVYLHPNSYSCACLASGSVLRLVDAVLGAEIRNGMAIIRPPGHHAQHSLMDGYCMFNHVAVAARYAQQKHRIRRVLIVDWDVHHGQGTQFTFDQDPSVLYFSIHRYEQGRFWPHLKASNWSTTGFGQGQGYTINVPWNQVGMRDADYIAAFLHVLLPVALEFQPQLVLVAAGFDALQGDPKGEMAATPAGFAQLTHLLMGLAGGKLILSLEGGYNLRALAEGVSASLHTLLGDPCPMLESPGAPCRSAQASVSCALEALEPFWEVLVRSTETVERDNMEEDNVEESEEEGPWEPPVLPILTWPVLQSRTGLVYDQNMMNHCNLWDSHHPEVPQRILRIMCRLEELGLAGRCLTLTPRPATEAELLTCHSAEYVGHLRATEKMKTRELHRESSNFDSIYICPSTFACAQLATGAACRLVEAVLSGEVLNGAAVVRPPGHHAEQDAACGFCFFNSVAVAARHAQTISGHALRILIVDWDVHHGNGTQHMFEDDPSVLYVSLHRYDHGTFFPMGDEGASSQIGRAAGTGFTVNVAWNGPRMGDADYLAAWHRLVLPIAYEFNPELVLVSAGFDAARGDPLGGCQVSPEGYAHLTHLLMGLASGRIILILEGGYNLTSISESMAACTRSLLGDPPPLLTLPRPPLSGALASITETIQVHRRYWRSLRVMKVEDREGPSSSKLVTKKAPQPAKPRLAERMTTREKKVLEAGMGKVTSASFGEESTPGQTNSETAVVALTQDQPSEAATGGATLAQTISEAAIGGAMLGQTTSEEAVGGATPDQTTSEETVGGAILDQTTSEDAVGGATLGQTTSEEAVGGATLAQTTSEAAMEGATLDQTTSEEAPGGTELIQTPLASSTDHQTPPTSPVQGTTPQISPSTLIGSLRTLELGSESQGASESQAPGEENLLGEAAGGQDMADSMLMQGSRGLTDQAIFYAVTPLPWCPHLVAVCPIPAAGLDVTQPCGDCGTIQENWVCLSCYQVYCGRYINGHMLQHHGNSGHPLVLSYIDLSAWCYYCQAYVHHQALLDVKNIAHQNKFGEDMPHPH
Protocol: Prepare a 10 mM stock solution of a compound with DMSO. Take 10 μl of stock solution and dilute with 90 μl DMSO to become a 1 mM working solution. […] Add 30 μl trypsin/SAHA mixture (20 mM Hepes pH 8.0, 100 mM NaCl, 10 mM SAHA, 0.01 mg/ml trypsin), incubate at 23° C. for 60 minutes to terminate the reaction. Finally, read fluorescence data by Envision (390 nm excitation, 460 nm emission). […] Finally, analyze the data by XLfit5 software and calculate the IC50 value of the compound. Vorinostat (SAHA) was a positive reference compound.

Vascular endothelial growth factor receptor 2, sequence (P35968 whole entry): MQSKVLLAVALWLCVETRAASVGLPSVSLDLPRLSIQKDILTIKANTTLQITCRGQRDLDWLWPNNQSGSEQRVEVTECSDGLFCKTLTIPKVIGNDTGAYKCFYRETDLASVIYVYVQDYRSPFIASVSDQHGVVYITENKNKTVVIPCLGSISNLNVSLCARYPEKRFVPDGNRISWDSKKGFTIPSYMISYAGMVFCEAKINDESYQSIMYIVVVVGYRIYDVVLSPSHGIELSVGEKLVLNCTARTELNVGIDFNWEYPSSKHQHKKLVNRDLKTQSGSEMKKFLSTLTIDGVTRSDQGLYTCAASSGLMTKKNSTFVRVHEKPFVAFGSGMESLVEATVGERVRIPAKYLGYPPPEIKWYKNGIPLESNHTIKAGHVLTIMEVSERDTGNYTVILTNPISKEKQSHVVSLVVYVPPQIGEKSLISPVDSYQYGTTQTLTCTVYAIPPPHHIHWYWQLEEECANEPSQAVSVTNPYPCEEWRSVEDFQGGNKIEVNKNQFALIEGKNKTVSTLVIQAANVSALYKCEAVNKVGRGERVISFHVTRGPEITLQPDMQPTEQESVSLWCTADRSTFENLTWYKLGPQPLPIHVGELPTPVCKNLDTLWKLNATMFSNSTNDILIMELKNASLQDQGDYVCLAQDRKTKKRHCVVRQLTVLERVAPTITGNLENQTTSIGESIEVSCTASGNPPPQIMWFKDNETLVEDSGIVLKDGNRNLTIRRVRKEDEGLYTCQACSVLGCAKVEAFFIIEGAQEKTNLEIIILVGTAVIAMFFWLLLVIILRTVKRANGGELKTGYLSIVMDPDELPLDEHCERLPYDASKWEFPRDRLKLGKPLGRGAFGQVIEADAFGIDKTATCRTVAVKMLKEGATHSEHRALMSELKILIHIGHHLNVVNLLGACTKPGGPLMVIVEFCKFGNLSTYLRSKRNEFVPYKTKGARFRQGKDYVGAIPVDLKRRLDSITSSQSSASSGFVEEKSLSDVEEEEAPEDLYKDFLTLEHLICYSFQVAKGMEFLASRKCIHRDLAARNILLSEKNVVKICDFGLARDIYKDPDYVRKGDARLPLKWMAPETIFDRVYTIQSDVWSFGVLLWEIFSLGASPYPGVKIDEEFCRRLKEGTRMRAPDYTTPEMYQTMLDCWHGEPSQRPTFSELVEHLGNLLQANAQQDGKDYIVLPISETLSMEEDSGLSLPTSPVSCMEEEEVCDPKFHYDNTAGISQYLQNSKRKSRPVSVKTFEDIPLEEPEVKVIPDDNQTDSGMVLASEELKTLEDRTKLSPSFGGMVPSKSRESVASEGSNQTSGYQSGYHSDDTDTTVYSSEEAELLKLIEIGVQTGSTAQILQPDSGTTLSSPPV

IC50 [1] [nM]	IC50 (Histone deacetylase 6) [nM]	SMILES
45	–	CC(=O)SCC(=O)NCCCCCOc1cc2nccc(Oc3ccc(NC(=O)C4(C(=O)NC5CC5)CC4)cc3F)c2cc1C(N)=O [US12304898, Example 73]
30	–	COc1cc2c(Oc3ccc(NC(=O)C4(C(=O)NC5CC5)CC4)cc3F)ccnc2cc1OCCCCCNC(=O)CSC(C)=O [US12304898, Example 67]
12	29.9	COc1cc2c(Oc3ccc(NC(=O)C4(C(=O)Nc5ccc(F)cc5)CC4)cc3F)ccnc2cc1OCCCCNC(=O)CSC(C)=O [US12304898, Example 61]
36	97.8	COc1cc2c(Oc3ccc(NC(=O)C4(C(=O)Nc5ccc(F)cc5)CC4)cc3F)ccnc2cc1OCCCCCCNC(=O)CSC(C)=O [US12304898, Example 63]

The remaining lines, values behind:

SMILES	IC50 [1] [nM]	IC50 (Histone deacetylase 6) [nM]
COc1cc2c(Oc3ccc(NC(=O)C4(C(=O)Nc5ccc(F)cc5)CC4)cc3F)ccnc2cc1OCCCCCNC(=O)CSC(C)=O [US12304898, Example 57]	20	48.3
COc1cc2c(Oc3ccc(NC(=O)C4(C(=O)Nc5ccc(F)cc5)CC4)cc3F)ccnc2cc1OCCCNCCCSC(C)=O [US12304898, Example 50]	6.6	–
COc1cc2c(Oc3ccc(NC(=O)C4(C(=O)Nc5ccc(F)cc5)CC4)cc3F)ccnc2cc1OCCCN(C)CCCS [US12304898, Example 53]	4.7	–
COc1cc2c(Oc3ccc(NC(=O)C4(C(=O)Nc5ccc(F)cc5)CC4)cc3F)ccnc2cc1OCCCNCCCS [US12304898, Example 51]	7.7	–
COc1cc2c(Oc3ccc(NC(=O)C4(C(=O)Nc5ccc(F)cc5)CC4)cc3F)ccnc2cc1OCCCN(C)CCCSC(C)=O [US12304898, Example 52]	3.2	–
COc1cc2c(Oc3ccc(NC(=O)C4(C(=O)Nc5ccc(F)cc5)CC4)cc3F)ccnc2cc1OCCCCCNC(=O)CS [US12304898, Example 58]	25	15.4
